Where two headings read alike, the source gives them in different places.
Tested on: NICD (Notch intracellular domain) CSL-bla reporter in HeLa cells
Experiment: Notch assay (CellSensor T-REx NICD CSL-bla HeLa beta-lactamase reporter; Method 1 / Method 2)
Type: cell-based
Settings: Homo sapiens, 10 μM compound, read-out: inhibiton (%) at 10 μM
Outline: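 HeLa cells carrying doxycycline-inducible NICD and a CSL-driven beta-lactamase reporter, 10^3 cells/well, were treated with compound plus doxycycline for 16-20 h at 37 °C. CCF4-AM substrate was loaded for 4 h at room temperature; background-subtracted blue (460 nm)/green (530 nm) emission ratio taken per well.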

[1] = Method 2 (40 nL of 1000× compound added to plate with Echo)
[2] = Method 1 (10× compound prepared in assay medium, added to plated cells)

SMILES | inhibition at 10 µM [1] [%] | inhibition at 10 µM [2] [%]
CC(C)C[C@H]1C(=O)N(C2CCN(C)CC2)CC2N(C(=O)OCc3ccccc3)O[C@H](CC3CCCCC3)C(=O)N21 (stereo partly drawn) [Compound I-138, benzyl (3R,6S)-3-(cyclohexylmethyl)-6-isobutyl-8-(1-methylpiperidin-4-yl)-4,7-dioxohexahydropyrazino[2,1-c][1,2,4]oxadiazine-1(6H)-carboxylate] | 98.2 | 
CC(C)CCOC(=O)N1O[C@H](C)C(=O)N2C1CN([C@@H](Cc1ccccc1)C(=O)NCCCO)C(=O)[C@@H]2Cc1ccccc1 (stereo partly drawn) [Compound I-89, isopentyl (3R,6S)-6-benzyl-8-((S)-1-((3-hydroxypropyl)amino)-1-oxo-3-phenylpropan-2-yl)-3-methyl-4,7-dioxohexahydropyrazino[2,1-c][1,2,4]oxadiazine-1(6H)-carboxylate] | 58.3 | 
CCCC[C@@H](C(=O)NCCCC(C)C)N1CC2N(C(=O)OCCc3ccc(O)cc3)O[C@H](Cc3ccccc3)C(=O)N2[C@@H](C)C1=O (stereo partly drawn) [Compound I-122, 4-hydroxyphenethyl (3R,6S)-3-benzyl-6-methyl-8-((S)-1-((4-methylpentyl)amino)-1-oxohexan-2-yl)-4,7-dioxohexahydropyrazino [2,1-c][1,2,4]oxadiazine-1(6H)-carboxylate] | 79.9 | 
CCCC[C@@H]1ON(C(=O)OCc2cccc3ccccc23)C2CN(C(C)C)C(=O)[C@H](Cc3ccc(O)cc3)N2C1=O (stereo partly drawn) [Compound I-23, (3S,6S)-naphthalen-1-ylmethyl 3-butyl-6-(4-hydroxybenzyl)-8-isopropyl-4,7-dioxohexahydropyrazino[2,1-c][1,2,4]oxadiazine-1(6H)-carboxylate] |  | 50.4
CCCCCCOC(=O)N1O[C@@H](Cc2ccccc2)C(=O)N2C1CN(Cc1ccccc1)C(=O)[C@@H]2Cc1ccc(O)cc1 (stereo partly drawn) [Compound I-6, (35,6S)-hexyl 3,8-dibenzyl-6-(4-hydroxybenzyl)-4,7-dioxohexahydropyrazino[2,1-c][1,2,4]oxadiazine-1(6H)-carboxylate] |  | 62.1
CCCC[C@H]1C(=O)N(CCc2cccc3ccccc23)CC2N(C(=O)OCCc3ccc(O)cc3)O[C@H](Cc3ccc(O)cc3)C(=O)N21 (stereo partly drawn) [Compound I-45, (3R,6S)-4-hydroxyphenethyl 6-butyl-3-(4-hydroxybenzyl)-8-(2-(naphthalen-1-yl)ethyl)-4,7-dioxohexahydropyrazino[2,1-c][1,2,4]oxadiazine-1(6H)-carboxylate] | 54.9 | 
CCCC[C@@H]1ON(C(=O)OCc2ccccc2)C2CN(CCCC)C(=O)[C@H](Cc3ccc(O)cc3)N2C1=O (stereo partly drawn) [Compound I-8, (3S,6S)-benzyl 3,8-dibutyl-6-(4-hydroxybenzyl)-4,7-dioxohexahydropyrazino[2,1-c][1,2,4]oxadiazine-1(6H)-carboxylate] |  | 60.2
COC(=O)N1O[C@H](Cc2ccc(O)cc2)C(=O)N2C1CN(CCc1cccc3ccccc13)C(=O)[C@@H]2C (stereo partly drawn) [Compound I-43, (3R,6S)-methyl 3-(4-hydroxybenzyl)-6-methyl-8-(2-(naphthalen-1-yl)ethyl)-4,7-dioxohexahydropyrazino[2,1-c][1,2,4]oxadiazine-1(6H)-carboxylate] | 52.9 | 
CC(C)OC(=O)N1O[C@H](CC2CCCCC2)C(=O)N2C1CN(CCc1ccccc1)C(=O)[C@@H]2CCCCN (stereo partly drawn) [Compound I-37, (3R,6S)-isopropyl 6-(4-aminobutyl)-3-(cyclohexylmethyl)-4,7-dioxo-8-phenethylhexahydropyrazino [2,1-c][1,2,4]oxadiazine-1(6H)-carboxylate] | 87.3 | 
CC(C)CCCNC(=O)[C@H](Cc1ccc(O)cc1)N1CC2N(C(=O)OCCc3ccccc3)O[C@H](CC(C)C)C(=O)N2[C@@H](Cc2ccc(O)cc2)C1=O (stereo partly drawn) [Compound I-99, phenethyl (3R,6S)-6-(4-hydroxybenzyl)-8-((S)-3-(4-hydroxyphenyl)-1-((4-methylpentyl)amino)-1-oxopropan-2-yl)-3-isobutyl-4,7-dioxohexahydropyrazino [2,1-c][1,2,4]oxadiazine-1(6H)-carboxylate] | 58 | 
CC(C)CCCNC(=O)[C@H](Cc1ccc(O)cc1)N1CC2N(C(=O)OCCC(C)C)O[C@H](CC(C)C)C(=O)N2[C@@H](Cc2ccc(O)cc2)C1=O (stereo partly drawn) [Compound I-98, isopentyl (3R,6S)-6-(4-hydroxybenzyl)-8-((S)-3-(4-hydroxyphenyl)-1-((4-methylpentyl)amino)-1-oxopropan-2-yl)-3-isobutyl-4,7-dioxohexahydropyrazino [2,1-c][1,2,4]oxadiazine-1(6H)-carboxylate] | 60.4 | 
O=C1[C@H](CO)N2C(=O)[C@@H](Cc3ccc(O)cc3)ON(C(=O)OCC3CCCCC3)C2CN1CCc1cccc2ccccc12 (stereo partly drawn) [Compound I-47, (3R,6S)-cyclohexylmethyl 3-(4-hydroxybenzyl)-6-(hydroxymethyl)-8-(2-(naphthalen-1-yl)ethyl)-4,7-dioxohexahydropyrazino[2,1-c][1,2,4]oxadiazine-1(6H)-carboxylate] | 71.4 | 
CC(C)C[C@@H]1ON(C(=O)OCc2cccc3ccccc23)C2CN(C(C)C)C(=O)[C@H](Cc3ccc(O)cc3)N2C1=O (stereo partly drawn) [Compound I-24, (3S,6S)-naphthalen-1-ylmethyl 6-(4-hydroxybenzyl)-3-isobutyl-8-isopropyl-4,7-dioxohexahydropyrazino[2,1-c][1,2,4]oxadiazine-1(6H)-carboxylate] |  | 68.1
C[C@H]1ON(C(=O)OCCc2ccc(O)cc2)C2CN([C@@H](Cc3ccccc3)C(=O)NCCC(N)=O)C(=O)[C@H](Cc3ccccc3)N2C1=O (stereo partly drawn) [Compound I-86, 4-hydroxyphenethyl (3R,6S)-8-((S)-1-((3-amino-3-oxopropyl)amino)-1-oxo-3-phenylpropan-2-yl)-6-benzyl-3-methyl-4,7-dioxohexahydro-pyrazino[2,1-c] [1,2,4]oxadiazine-1(6H)-carboxylate] | 70.9 | 
COC(=O)N1O[C@H](CC2CCCCC2)C(=O)N2C1CN(CC1CCCCC1)C(=O)[C@@H]2CCCCN (stereo partly drawn) [Compound I-36, (3R,6S)-methyl 6-(4-aminobutyl)-3,8-bis(cyclohexylmethyl)-4,7-dioxohexahydropyrazino[2,1-c][1,2,4]oxadiazine-1(6H)-carboxylate] | 52.2 | 
CC(C)CCN1CC2N(C(=O)OCc3cccc4ccccc34)O[C@H](CC(N)=O)C(=O)N2[C@@H](Cc2ccccc2)C1=O (stereo partly drawn) [Compound I-21, (3R,6S)-naphthalen-1-ylmethyl 3-(2-amino-2-oxoethyl)-6-benzyl-8-isopentyl-4,7-dioxohexahydropyrazino[2,1-c][1,2,4]oxadiazine-1(6H)-carboxylate] |  | 60
CCCC[C@@H](C(=O)NCCC(C)C)N1CC2N(C(=O)OCCc3ccc(O)cc3)O[C@H](Cc3ccccc3)C(=O)N2[C@@H](Cc2ccc(O)cc2)C1=O (stereo partly drawn) [Compound I-109, 4-hydroxyphenethyl (3R,6S)-3-benzyl-6-(4-hydroxybenzyl)-8-((S)-1-(isopentylamino)-1-oxohexan-2-yl)-4,7-dioxohexahydropyrazino[2,1-c][1,2,4]oxadiazine-1(6H)-carboxylate] | 74 | 
NC(=O)CC[C@H]1C(=O)N([C@@H](Cc2ccccc2)C(=O)NCCCc2ccccc2)CC2N(C(=O)OCCc3ccccc3)O[C@H](Cc3ccccc3)C(=O)N21 (stereo partly drawn) [Compound I-125, phenethyl (3R,6S)-6-(3-amino-3-oxopropyl)-3-benzyl-4,7-dioxo-8-((S)-1-oxo-3-phenyl-1-((3-phenylpropyl)amino)propan-2-yl)hexahydropyrazino [2,1-c][1,2,4]oxadiazine-1(6H)-carboxylate] | 59.6 | 
